Data from PubChem BioAssay AID248 (DTP/NCI, 2004).
Values joined by “and” are separate entries in the source; they are usually repeats but may differ in a detail not shown here. Equal values may be shown once. Inconclusive results and toxic doses are left out. Rule as the data show it: active = T/C of 150% or more; inactive = T/C below 125%.

System: L1210 leukemia ip in BDF1 mice, survival T/C
Assay: NCI In Vivo Anticancer Drug Screen. Data for tumor model L1210 Leukemia (intraperitoneal) in B6D2F1 (BDF1) mice
Conditions: endpoint: mean survival time, higher = longer survival
How it was run: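 Value reflects the ratio of survival in compound-treated mice to survival in vehicle-treated controls, with both groups carrying the same transplanted tumor.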

[1] = dose: 100.0 mg/kg/injection, schedule: Q04DX002 (ip), vehicle: saline with Tween-80
[2] = dose: 200.0 mg/kg/injection, schedule: Q04DX002 (ip), vehicle: saline with Tween-80
[3] = dose: 400.0 mg/kg/injection, schedule: Q04DX002 (ip), vehicle: saline with Tween-80
[4] = dose: 100.0 mg/kg/injection, schedule: Q01DX009 (ip), vehicle: saline
[5] = dose: 100.0 mg/kg/injection, schedule: Q04DX003 (ip), vehicle: saline
[6] = dose: 200.0 mg/kg/injection, schedule: Q01DX009 (ip), vehicle: saline
[7] = dose: 200.0 mg/kg/injection, schedule: Q04DX003 (ip), vehicle: saline
[8] = dose: 400.0 mg/kg/injection, schedule: Q01DX009 (ip), vehicle: saline
[9] = dose: 400.0 mg/kg/injection, schedule: Q04DX003 (ip), vehicle: saline
[10] = dose: 100.0 mg/kg/injection, schedule: Q04DX003 (ip), vehicle: saline with Tween-80
[11] = dose: 200.0 mg/kg/injection, schedule: Q04DX002 (ip), vehicle: other
[12] = dose: 200.0 mg/kg/injection, schedule: Q04DX003 (ip), vehicle: saline with Tween-80
[13] = dose: 400.0 mg/kg/injection, schedule: Q04DX003 (ip), vehicle: saline with Tween-80
[14] = dose: 100.0 mg/kg/injection, schedule: Q01DX009 (ip), vehicle: saline with Tween-80
[15] = dose: 200.0 mg/kg/injection, schedule: Q01DX009 (ip), vehicle: saline with Tween-80
[16] = dose: 400.0 mg/kg/injection, schedule: Q01DX009 (ip), vehicle: saline with Tween-80
[17] = dose: 100.0 mg/kg/injection, schedule: Q01DX001 (ip), vehicle: Klucel (hydroxypropylcellulose) (HPC)
[18] = dose: 200.0 mg/kg/injection, schedule: Q01DX001 (ip), vehicle: Klucel (hydroxypropylcellulose) (HPC)

Measured: T/C

Cc1cc(C)c(NC(N)=S)cc1C
inactive: dose: 100.0 mg/kg/injection, schedule: Q04DX002 (ip), vehicle: Klucel (hydroxypropylcellulose) (HPC) 92 % of control | dose: 200.0 mg/kg/injection, schedule: Q04DX002 (ip), vehicle: Klucel (hydroxypropylcellulose) (HPC) 94 % of control

CCCCCCCNC(=S)OCC
inactive: [1] 100 % of control | [2] 107 % of control | [3] 107 % of control

CC1(C)CCCC(Cl)(C(Cl)c2ccccc2)C1=O (stereo not drawn)
inactive: [4] 90 % of control | [5] 104 % of control | [6] 95 % of control | [7] 102 % of control | [8] 91 % of control | [9] 104 % of control

NC(=O)CC(O)C(N)=O (stereo not drawn)
inactive: [4] 94 % of control | [5] 104 % of control | [6] 95 % of control | [7] 106 % of control | [8] 99 % of control | [9] 96 % of control

CCCCCCCCCC(=O)N/N=C/c1ccccc1Cl
inactive: dose: 12.5 mg/kg/injection, schedule: Q01DX009 (ip), vehicle: Klucel (hydroxypropylcellulose) (HPC) 112 % of control | dose: 25.0 mg/kg/injection, schedule: Q01DX009 (ip), vehicle: Klucel (hydroxypropylcellulose) (HPC) 113 % of control | dose: 50.0 mg/kg/injection, schedule: Q01DX009 (ip), vehicle: Klucel (hydroxypropylcellulose) (HPC) 104 % of control

Cc1cc2c(cc1C)C(=O)C(N1CCN(C)CC1)CCC2 (stereo not drawn)
inactive: [10] 101 % of control

Cc1ccc(OCC(=O)Nc2c(Cl)cc(Cl)cc2Cl)c(C)c1
inactive: dose: 100.0 mg/kg/injection, schedule: Q04DX002 (ip), vehicle: gum acacia 92 % of control | dose: 200.0 mg/kg/injection, schedule: Q04DX002 (ip), vehicle: gum acacia 89 % of control

CSc1nc(Cl)c(Br)c(N2CC2)n1
inactive: dose: 100.0 mg/kg/injection, schedule: Q01DX Z (ip), vehicle: methylcellulose (MC) 110 % of control | dose: 200.0 mg/kg/injection, schedule: Q01DX Z (ip), vehicle: methylcellulose (MC) 108 % of control

NC(=O)OCCc1c2ccccc2nc2ccccc12
inactive: [11] 103 % of control

CC(NC(=O)C(C)(C)C)c1ccc(-c2ccccc2)cc1 (stereo not drawn)
inactive: [1] 98 % of control | [2] 95 % of control | [3] 98 % of control

CCNC(=O)OCCN1C(=O)C2C3CCC(O3)C2C1=O (stereo not drawn)
inactive: dose: 100.0 mg/kg/injection, schedule: Q01DX001 (ip), vehicle: saline with Tween-80 98 % of control | [10] 100 % of control | dose: 200.0 mg/kg/injection, schedule: Q01DX001 (ip), vehicle: saline with Tween-80 103 % of control | [12] 100 % of control | dose: 400.0 mg/kg/injection, schedule: Q01DX001 (ip), vehicle: saline with Tween-80 113 % of control | [13] 97 % of control

C=CC1CN(CCc2cc3ccccc3[nH]2)CCC1CC(=O)OCC (stereo not drawn)
inactive: [14] 91 % of control | [15] 96 % of control | [16] 97 % of control

CNC(=O)Nc1ccccc1
inactive: [10] 94 % of control | [12] 90 % of control | [13] 94 % of control

COC(=O)CCCC1CC(=O)c2c(c(O)c3ccccc3c2O)C1=O (stereo not drawn)
inactive: dose: 100.0 mg/kg/injection, schedule: Q01DX005 (ip), vehicle: saline with Tween-80 92 % of control | [10] 119 % of control | dose: 200.0 mg/kg/injection, schedule: Q01DX005 (ip), vehicle: saline with Tween-80 95 % of control | [12] 105 % of control | dose: 400.0 mg/kg/injection, schedule: Q01DX005 (ip), vehicle: saline with Tween-80 97 % of control | [13] 103 % of control

O=C(c1ccc([N+](=O)[O-])cc1)c1ccc([N+](=O)[O-])cc1
inactive: [1] 90 % of control | [2] 90 % of control | [3] 101 % of control

CCCCCCCCCCCCSC1CC(=O)N(c2ccccc2)C1=O (stereo not drawn)
inactive: dose: 37.5 mg/kg/injection, schedule: Q04DX003 (ip), vehicle: other 99 % of control and 109 % of control | dose: 50.0 mg/kg/injection, schedule: Q01DX001 (ip), vehicle: other 98 % of control and 101 % of control and 104 % of control | dose: 75.0 mg/kg/injection, schedule: Q04DX003 (ip), vehicle: other 86 % of control and 89 % of control | dose: 100.0 mg/kg/injection, schedule: Q04DX002 (ip), vehicle: other 95 % of control and 89 % of control | dose: 100.0 mg/kg/injection, schedule: Q04DX003 (ip), vehicle: other 103 % of control | dose: 150.0 mg/kg/injection, schedule: Q04DX003 (ip), vehicle: other 86 % of control and 88 % of control | [11] 89 % of control and 92 % of control | dose: 200.0 mg/kg/injection, schedule: Q04DX003 (ip), vehicle: other 97 % of control | dose: 400.0 mg/kg/injection, schedule: Q04DX002 (ip), vehicle: other 96 % of control and 89 % of control | dose: 400.0 mg/kg/injection, schedule: Q04DX003 (ip), vehicle: other 94 % of control

O=C(N/N=C/c1[nH]c(=S)[nH]c(=O)c1Cc1ccc(Cl)cc1)c1ccncc1
inactive: [17] 104 % of control | [18] 101 % of control | dose: 400.0 mg/kg/injection, schedule: Q01DX001 (ip), vehicle: Klucel (hydroxypropylcellulose) (HPC) 98 % of control

O=C(/C=C/c1ccc(Cl)cc1Cl)c1ccc(Cl)cc1
inactive: [14] 105 % of control | [10] 95 % of control | [15] 90 % of control | [12] 93 % of control | [16] 90 % of control | [13] 88 % of control

Nn1nnc(-c2ccccc2)c1-c1ccccc1
inactive: dose: 100.0 mg/kg/injection, schedule: Q01DX001 (ip), vehicle: carboxymethylcellulose (CMC) 100 % of control | dose: 200.0 mg/kg/injection, schedule: Q01DX001 (ip), vehicle: carboxymethylcellulose (CMC) 100 % of control

CCCN(CCC)CP(=S)(CN(CCC)CCC)CN(CCC)CCC
inactive: dose: 100.0 mg/kg/injection, schedule: Q01DX001 (ip), vehicle: saline 92 % of control | dose: 200.0 mg/kg/injection, schedule: Q01DX001 (ip), vehicle: saline 90 % of control

COc1ccc2nc3cc(Cl)ccc3c(NCCCCN(C)C)c2c1
inactive: dose: 6.0 mg/kg/injection, schedule: Q04DX003 (ip), vehicle: saline 97 % of control | dose: 12.5 mg/kg/injection, schedule: Q04DX003 (ip), vehicle: saline 99 % of control

Cc1ccc(SS(=O)(=O)c2ccc(C)cc2)cc1
inactive: [17] 86 % of control | dose: 100.0 mg/kg/injection, schedule: Q01DX009 (ip), vehicle: saline sonified 116 % of control | dose: 100.0 mg/kg/injection, schedule: Q04DX003 (ip), vehicle: Klucel (hydroxypropylcellulose) (HPC) 114 % of control | [18] 86 % of control | dose: 200.0 mg/kg/injection, schedule: Q01DX009 (ip), vehicle: saline sonified 102 % of control | dose: 200.0 mg/kg/injection, schedule: Q04DX003 (ip), vehicle: Klucel (hydroxypropylcellulose) (HPC) 101 % of control | dose: 400.0 mg/kg/injection, schedule: Q01DX009 (ip), vehicle: saline sonified 107 % of control | dose: 400.0 mg/kg/injection, schedule: Q04DX003 (ip), vehicle: Klucel (hydroxypropylcellulose) (HPC) 106 % of control
